# According to patent publication US20260374739A1, “SMALL MOLECULAR WEIGHT CHEMICAL COMPOUND TO ANTAGONIZE EPH-EPHRIN TETRAMERIZATION AND INHIBIT BIDIRECTIONAL SIGNALING” (THE BOARD OF REGENTS OF THE UNIVERSITY OF TEXAS SYSTEM, priority 2022, published 2026):
# Entries after “also recorded” stand apart in the source; their conditions may differ.
# Columns and labels:
# EphB1-EB2 = target: T1, EphB1-EB2 (Rattus norvegicus, UniProt P09759); test: ELISA EB2-His binding to immobilized EphB1-Fc; parameters: species or system mouse EB2; settings: 5 μM
# T1 construct: mouse (Mus musculus) EB2-His ectodomain (Sino Biologicals), ELISA
# T1 sequence (P09759 18-538): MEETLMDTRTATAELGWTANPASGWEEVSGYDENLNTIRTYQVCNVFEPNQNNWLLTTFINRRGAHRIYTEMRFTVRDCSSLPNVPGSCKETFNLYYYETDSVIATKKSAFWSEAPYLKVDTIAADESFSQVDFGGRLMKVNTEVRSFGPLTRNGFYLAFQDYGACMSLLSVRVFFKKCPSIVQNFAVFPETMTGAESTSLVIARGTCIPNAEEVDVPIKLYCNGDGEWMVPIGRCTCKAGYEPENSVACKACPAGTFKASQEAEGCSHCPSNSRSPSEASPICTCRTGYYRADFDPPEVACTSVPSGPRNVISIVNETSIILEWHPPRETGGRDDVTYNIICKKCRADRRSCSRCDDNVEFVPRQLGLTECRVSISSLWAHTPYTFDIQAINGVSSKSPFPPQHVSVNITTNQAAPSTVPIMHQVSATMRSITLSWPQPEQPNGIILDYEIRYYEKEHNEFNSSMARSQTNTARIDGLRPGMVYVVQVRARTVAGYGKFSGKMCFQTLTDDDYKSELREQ
# Method: (§1) The 32 hits were then subjected to ELISA in which EphB1-Fc was first immobilized in 96 well Protein A plates, then soluble EB2-His was added with hit compound in triplicate, again at 5 μM. After 2 hr at RT to allow EB2-His binding to EphB1-Fc, wells were washed, incubated with nickel-activated horseradish peroxidase (HisProbe-HRP) to detect bound EB2-His protein, washed, and then incubated with ELISA Pico Chemiluminescent Substrate (both from Thermo-Fisher) before being read in a luminometer. A single-protein counter ELISA using the dual-tagged EphB2-His-Fc ectodomain protein was also run. […] For simplicity, we call this compound A20.
# EphB2-His-Fc = test: single-protein counter ELISA; settings: 5 μM
# Method: as §1
# EphB2-His-Fc / EB2-His = target: T2, EphB2-His-Fc / EB2-His (Mus musculus, UniProt P54763); test: pulldown EB2-His to EphB2-His-Fc; type: binding
# T2 construct: a dual-tagged EphB2-His-Fc ectodomain protein; mouse EB2-His residues 18-232; purchased R&D Systems (EphB-Fc); Sino Biologicals (EphrinB-His)
# T2 sequence (P54763 19-543 limits assumed): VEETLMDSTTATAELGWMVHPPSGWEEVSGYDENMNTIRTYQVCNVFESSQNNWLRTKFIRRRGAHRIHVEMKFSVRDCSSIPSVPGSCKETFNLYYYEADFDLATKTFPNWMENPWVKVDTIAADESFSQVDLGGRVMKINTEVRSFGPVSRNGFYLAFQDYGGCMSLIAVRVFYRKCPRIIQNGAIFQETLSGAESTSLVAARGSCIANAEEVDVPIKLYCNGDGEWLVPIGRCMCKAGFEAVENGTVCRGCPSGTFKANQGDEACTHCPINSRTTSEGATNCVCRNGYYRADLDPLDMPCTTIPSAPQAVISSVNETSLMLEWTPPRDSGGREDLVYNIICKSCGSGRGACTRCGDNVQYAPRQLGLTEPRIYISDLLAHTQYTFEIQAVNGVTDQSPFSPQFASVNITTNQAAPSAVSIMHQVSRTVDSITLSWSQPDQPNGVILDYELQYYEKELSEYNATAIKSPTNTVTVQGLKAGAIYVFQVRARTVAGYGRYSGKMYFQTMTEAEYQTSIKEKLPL
# EphB4-Fc / EB2-His = target: T3, EphB4-Fc / EB2-His (Mus musculus, UniProt P54761); test: pulldown EB2-His to EphB4-Fc; type: binding; settings: up to 250 μM for A20; listed as A20
# T3 construct: soluble mouse EB2-His ectodomain, pulldown
# T3 sequence (P54761 16-539 limits assumed): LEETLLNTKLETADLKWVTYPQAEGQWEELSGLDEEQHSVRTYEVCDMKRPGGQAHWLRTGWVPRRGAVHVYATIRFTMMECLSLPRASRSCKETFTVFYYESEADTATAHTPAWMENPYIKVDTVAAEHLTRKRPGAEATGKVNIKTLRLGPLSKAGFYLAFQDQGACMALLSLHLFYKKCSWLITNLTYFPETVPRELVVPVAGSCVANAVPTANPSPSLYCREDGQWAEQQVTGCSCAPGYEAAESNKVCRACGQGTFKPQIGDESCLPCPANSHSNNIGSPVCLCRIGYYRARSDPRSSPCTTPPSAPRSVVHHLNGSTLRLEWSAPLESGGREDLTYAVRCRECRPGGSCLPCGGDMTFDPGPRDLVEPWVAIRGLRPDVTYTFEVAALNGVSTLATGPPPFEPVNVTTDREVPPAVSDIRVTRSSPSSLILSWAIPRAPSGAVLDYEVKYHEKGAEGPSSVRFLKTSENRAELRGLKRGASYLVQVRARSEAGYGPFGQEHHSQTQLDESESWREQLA
# [1] = system: EphB2 tyrosine kinase, Cos1 cells; test: EphB2 kinase activation by pre-clustered EB2-Fc in Cos1 cells, immunoblot; type: cell-based; settings: 30 min, listed as A20
# Method: To assess if A20 would reduce the ability of EphrinB2 to stimulate activation of the EphB tyrosine kinase domain in live cells, Cos1 cells that express endogenous EphB2 were exposed to pre-clustered EB2-Fc ectodomains in the presence or absence of A20 for 30 min. […] Stimulated cells were fixed on the coverslip and subjected to immunofluorescence (IF) with anti-Fc antibodies to detect ligand protein bound to receptor, which leads to formation of circular Eph-Ephrin tetramers that then cluster into large obvious spots on the cell surface by lateral migration through the plasma membrane and also contain anti-phosphotyrosine signal indicating activation of the receptor's kinase domain.
# [2] = target: pre-formed EphrinB2-EphB1 tetramer (Homo sapiens, UniProt P54762); test: Octet competition of pre-existing tetramers, human EphrinB2-EphB1; type: binding; settings: 2, 10, 50 μM
# pre-formed EphrinB2-EphB1 tetramer, sequence (P54762 18-540 limits assumed): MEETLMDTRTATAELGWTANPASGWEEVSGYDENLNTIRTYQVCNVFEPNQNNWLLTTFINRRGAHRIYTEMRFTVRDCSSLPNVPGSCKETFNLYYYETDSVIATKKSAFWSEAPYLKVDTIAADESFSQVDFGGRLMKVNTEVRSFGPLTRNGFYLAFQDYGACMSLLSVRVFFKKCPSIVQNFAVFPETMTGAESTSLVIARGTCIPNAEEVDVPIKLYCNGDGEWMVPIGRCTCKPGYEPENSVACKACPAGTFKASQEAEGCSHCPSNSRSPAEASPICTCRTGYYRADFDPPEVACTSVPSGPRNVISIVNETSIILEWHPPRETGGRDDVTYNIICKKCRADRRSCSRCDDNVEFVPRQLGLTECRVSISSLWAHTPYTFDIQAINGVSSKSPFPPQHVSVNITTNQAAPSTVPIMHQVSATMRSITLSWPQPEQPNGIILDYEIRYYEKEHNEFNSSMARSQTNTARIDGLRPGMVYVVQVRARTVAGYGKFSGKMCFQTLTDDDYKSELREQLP
# Method: (§2) Biophysical studies were conducted to explore if A20 is able to disrupt pre-existing stable tetramers, focusing on interactions of immobilized human EphrinB2 binding to soluble human EphB1 and EphB2, and immobilized mouse EphB2 binding to mouse EphrinB2 (FIGS. 29A-29C). In these experiments, sensor-chip immobilized proteins were first exposed to 50 nM of their soluble target protein for an 800 sec association step and 1,000 sec dissociation step to generate pre-formed stable tetramers, which were then subjected to a 1,000 sec competition step that included either 0, 2, 10, or 50 μM concentrations of A20 salt compound. […] The ability of A20 to disrupt pre-existing tetramers was most pronounced for human EB2-EphB2 and cognate murine EphB2-EB2 experiments and indicated a gradual ongoing dose-dependent decline in tetramers throughout the 1,000 sec competition step (and beyond if allowed) and irrespective of whether the human EphrinB2 or murine EphB2 was the immobilized protein.
# [3] = target: pre-formed EphrinB2-EphB2 tetramer (Homo sapiens, UniProt P29323); test: Octet competition of pre-existing tetramers, human EphrinB2-EphB2; type: binding; settings: 2, 10, 50 μM
# pre-formed EphrinB2-EphB2 tetramer, sequence (P29323 19-543 limits assumed): as the sequence (P54763 19-543 limits assumed) above, with L104S, N154S, K520Q counted along it
# Method: as §2
# [4] = target: pre-formed EphB2-EphrinB2 tetramer (Mus musculus, UniProt P54763); test: Octet competition of pre-existing tetramers, mouse EphB2-EphrinB2; type: binding; settings: 2, 10, 50 μM
# pre-formed EphB2-EphrinB2 tetramer, sequence (P54763 19-543 limits assumed): as the sequence (P54763 19-543 limits assumed) above
# Method: as §2
# [5] = system: morphine withdrawal in mice; test: naloxone-precipitated morphine withdrawal behaviors; type: in vivo, mouse; settings: 30 mg/kg IP, 4×12 hr
# Method: Eight month old male EphB1^+/+ WT mice EphB1^−/− KO mice from the Henkemeyer mouse colony were injected intraperitoneally (IP) with increasing morphine doses in normal saline every 12 h for 4 consecutive days (day 1:20 mg/kg, day 2:40 mg/kg, day 3:60 mg/kg, day 4:80 mg/kg) and on the fifth day in the morning they were injected with a final 100 mg/kg morphine dose which was staggered by one mouse every 30 minutes. Exactly 3 h after the last morphine injection, each mouse was weighed, and withdrawal was precipitated using naloxone hydrochloride that was subcutaneously injected at 1 mg/kg. Withdrawal signs were then monitored by an examiner who was blinded to animal genotypes for 30 min after naloxone administration to identify the number of jumps, wet dog shakes, and diarrhea events observed in the 30 min period, and % change in weight from before naloxone administration to 30 min post withdrawal. For tremor and ptosis, the presence of tremor and/or a drooping upper eyelid is monitored at the beginning of each 5 min interval during the 30 min monitoring period.
# WT CD1 mice was used in one experiment and WT C57BL/6 mice was used in the other. All mice were 4-5-month-old males. In both cases, 30 mg/kg A20 free base dissolved in 6% DMSO/94% sunflower seed oil was administered in 4×12 hr IP dosings to mice that were at an entering dose 6 of a 9×12 hr IP schedule of escalating morphine (2×20, 2×40, 2×60, 2×80, and 1×100 mg/kg). Naloxone was given exactly 3 hr after the last A20/morphine dose and withdrawal behaviors were monitored for 30 min. Both groups of mice were scored for jumping (FIG. 70A) and the C57BL/6 mice were additionally scored at 5 min intervals for diarrhea, tremor, and ptosis (FIG. 70B). […] In summary, A20 tetramerization inhibitor compounds serve to help reduce the adverse effects of opioid use and abuse, and could possibly be used to help wean people off of terribly addictive narcotic drugs.
# [6] = oral bioavailability, IV 3 mg/kg vs PO 30 mg/kg; type: in vivo, mouse; settings: PBS
# Method: A20.2×HCl compound was provided to the UT Southwestern PK Core facility and tested for bioavailability after a single dose when either injected intravenous (IV) at 3 mg/kg or provided by oral gavage (PO) at 30 mg/kg using PBS as vehicle. The data on oral gavage is quite impressive and indicates significant levels of A20 persist, especially in the liver, after a single dose.
# To examine the drug-like nature of the disclosed compounds, tests for solubility was conducted.
SMILES,ELISA signal (EphB1-EB2),counter ELISA signal (EphB2-His-Fc),pulldown EphB2 binding to EB2-His (EphB2-His-Fc / EB2-His),"IC50 (EphB2-His-Fc / EB2-His; pulldown, EphB2) [µM]",pulldown EphB4-Fc binding to EB2-His (EphB4-Fc / EB2-His),EphB2 kinase activity [1],competition of pre-formed tetramers [2],competition of pre-formed tetramers [3],competition of pre-formed tetramers [4],diarrhea and ptosis [5],jumps [5],tremor reduction [5] [%],oral bioavailability [6]
"Oc1c(Br)cc(CN2CCOCC2)c2cccnc12 [Compound 5, 7-bromo-5-(morpholinomethyl)quinolin-8-ol]",reduced signal in the two-protein ELISA,had no effect on signal in the single-protein ELISA,strong dose-dependent ability to antagonize EphB2-His-Fc protein binding to EB2-His,~10,only a weak ability to prevent EphB4-Fc from binding to EB2-His; also recorded: only weak/poor ability to antagonize soluble EB2-His binding,caused a dose-dependent reduction in EphB2 kinase activity; also recorded: antagonizes EB2 stimulation of EphB2 catalytic activity,clearly disrupted in a dose-dependent fashion some of the pre-existing EB2-EphB1 tetramers,able to compete away in a dose-dependent manner a significant amount of the stable pre-formed tetramer complexes,able to compete away in a dose-dependent manner a significant amount of the stable pre-formed tetramer complexes,did not show signs of diarrhea or ptosis,significantly fewer jumps,50,–
"Oc1c(Br)cc(CN2CCOCC2)c2cccnc12 [Compound 6, 4-((7-bromo-8-hydroxyquinolin-1-ium-5-yl)methyl)morpholin-4-ium chloride]",–,–,–,–,–,–,–,–,–,–,–,–,orally bioavailable
